Reference: patent publication US8802082B2, “Rhodamine derivatives for photodynamic diagnosis and treatment” (Université de Montreal, priority 1999, dated 2014)

What was measured:
activated lymphocytes = assay: Cellular content/efflux of TH9402 by flow cytometry, activated lymphocytes; type: cell-based, human; details: 10 μM TH9402, wash with 1 μg/ml cyclosporin-A, 110 minutes
Protocol: TH9402 cellular content in resting and activated lymphocytes was evaluated by flow-cytometry, since the intensity of TH9402 (green) fluorescence correlates with the cellular content in TH9402. Briefly, 10^6 cells/ml, previously activated or not with PHA, were incubated in X-vivo-5 medium supplemented with 2.5% human AB serum and 10 μM TH9402 for 40 minutes. These cells were washed two times with X-vivo medium supplemented with 10% AB serum and cells analysed by flow cytometry 30, 50, 70, 90 and 110 min after the end of the TH9402 incorporation period. […] Since cellular concentration of TH9402 correlates with the extent of cell elimination, the high concentration of TH9402 maintained in activated lymphocytes explains their sensitivity to photodynamic therapy. In contrast, the rapid efflux of TH9402 from resting lymphocytes should explain preservation of their proliferative activity.
In order to identify the mechanism responsible for the differential retention of TH9402 between activated and resting lymphocytes, cyclosporin-A was used to block the multidrug transporter (P-gp 170). These cells were incubated with 10 μM TH9402 for 8 minutes, and washed with medium containing 1 μg/ml cyclosporin-A or medium alone. TH9402 retention was subsequently evaluated by flow-cytometry (green fluorescence) (FIG. 5). […]

[1] = test system: CEM T cell acute lymphoblastic leukemia cell line; assay: Phototoxicity of TH9402, limiting dilution assay of clonogenic cells, CEM admixed with irradiated PBMC; type: cell-based; details: 10 μM TH9402 40 min, 90 min dye-free, 5 joules/cm^2, LDA 12-14 days
Protocol: (§1) T cells represent the most important population of immune cells present in the peripheral blood. […] Phototoxicity was also evaluated in parallel against the chronic myelogenous leukemia cell line K562, that had been used in U.S. Pat. Nos. 5,556,992 and 5,773,460. The CEM T cell acute lymphoblastic leukemia cell line and K562 chronic myelogeneous leukemia cell line (Lozzio, B. B. and Lozzio, C. B. (1979) Cancer Res., 3(6): 363-370) were obtained from the American Type Culture Collection (ATCC, 12301 Parklawn Drive, Rockville, Md. 20852 USA) under the accession number CCL-119 and CCL-243. Cultures were maintained at 37° C. in a humidified incubator with an atmosphere of 95% air and 5% CO2. […] Before each experiment, cell viability was assessed by trypan blue exclusion. […]
(§2) To assess the photochemotherapeutic potential and the in vitro phototoxicity of 4,5-dibromorhodamine 123 hydrobromide (TH9402), the T cell line CEM and the leukemic line K562 admixed with normal irradiated PBMC were incubated with TH9402 and exposed to 5 joules/cm^2 of light (as described above). […] Growth at each serial dilution was assessed in an “all-or-nothing” (positive or negative) fashion under an inverted phase microscope. […]

[2] = test system: K562 chronic myelogeneous leukemia cell line; assay: Phototoxicity of TH9402, limiting dilution assay of clonogenic cells, K562 admixed with irradiated PBMC; type: cell-based; details: 10 μM TH9402 40 min, 90 min dye-free, 5 joules/cm^2, LDA 12-14 days
Protocol: as §1, §2

[3] = test system: activated T lymphocytes (CD25+, CD4+ and CD8+); assay: Phenotypic analysis of residual T lymphocytes after phototherapy (CD25, CD4, CD8 flow cytometry); type: cell-based, human; details: 10 μM TH9402; 2.5, 5 and 10 joules/cm^2; 48 to 72 hours culture; untreated 14%
Protocol: In order to determine if the abrogation of reactivity toward subject B obtained after PDT correlated with the loss of activated T cells, the proportion of activated cells was determined in samples exposed or not to PDT. Activated cells can be discriminated from resting T lymphocytes by their enhanced expression of CD25, which can be detected with a monoclonal antibody specific for CD25, the inducible a chain of the IL-2 receptor. Briefly, after activation of T cells in mixed lymphocyte reaction, as described above, activated T lymphocytes were incubated in X-vivo 15 medium (BioWhittaker) supplemented with 2.5% human AB serum and 10 μM TH9402 for 40 min. These cells were than washed twice with X-vivo-15 medium supplemented with 10% AB human serum. At 110 min after the end of the incubation period, cells were exposed to doses of light ranging from 2.5 to 10 joules/cm^2 of using the above described light delivery device (U.S. Pat. No. 5,798,523). Light energy was delivered using a fluorescent scanning device with maximum wavelength at 512 nm. After treatment, cells were cultured for 48 to 72 hours in X-vivo-15 medium supplemented with 15% of human AB serum. After the latter incubation period, cells were counted and their immunophenotypes analyzed by dual-color flow cytometry to determine the proportion of activated T lymphocytes. […]

Br.COC(=O)c1ccccc1-c1c2ccc(=N)c(Br)c-2oc2c(Br)c(N)ccc12 [TH9402, 4,5-dibromorhodamine 123 (2-(4,5-dibromo-6-amino-3-imino-3H-xanthen-9-yl)-benzoic acid methyl ester) hydrobromide]
fluorescence intensity in activated cells treated or not treated with cyclosporin A (activated lymphocytes): identical
CEM cells escaping elimination by phototherapy in comparison to the media only sample [1]: less than 0.1%
K562 cells escaping elimination by phototherapy in comparison to the media only sample [2]: less than 0.1%
proportion of activated T lymphocytes, both CD4+ and CD8+, after PDT [3]: below 1%
